Data set [1] deals with c-Jun N-terminal kinase, JNK (Homo sapiens) (UniProt P45983+P53779+P45984). Description: Inhibition of JNK in HFL1 cells assessed as inhibition of anisomycin-activated c-Jun phosphorylation preincubated for 1 hrs followed by anisomycin activation for 1 hrs by Western blot analysis. The data set is classed as cell-based. The settings on record: dose 2-50 µM, time 2.0 hrs. Background: A western blot detects proteins with antibodies after separation by electrophoresis.

For data set [2], the target named is Mitogen-activated protein kinase 1 (Homo sapiens) (UniProt P28482). The experiment in a line: Inhibition of ERK2 (unknown origin) at 1 uM preincubated for 10 mins followed by substrate addition and measured after 60 mins in the presence of ATP by ADP-Glo reagent based luminescence assay relative to control. The settings on record: time 70.0 min. For orientation: In ADP-Glo the light output rises with the ADP produced.

A short description of data set [3]: Half-life in Sprague-Dawley rat at 75 mg/kg, po by HPLC-UV analysis. It is filed as ADME, organism-based. The settings on record: in vivo.
The target of data set [4] is CDK4/Cyclin D3 (Homo sapiens) (UniProt P11802+P30281). Description: Inhibition of CDK4/Cyclin D3 (unknown origin) at 1 uM preincubated for 10 mins followed by substrate addition and measured after 60 mins in the presence of ATP by ADP-Glo reagent based luminescence assay. The data set is classed as protein-complex assay. The settings on record: time 70.0 min.
Data set [5] deals with Mus musculus. Description: Anti-fibrotic activity in bleomycin-induced C57BL/6 mouse model of pulmonary fibrosis assessed as alleviation of alveolar wall thickening in lungs at 25 to 75 mg/kg, po administered twice a day for 3 weeks by H&E staining based analysis. The data set is classed as functional, organism-based. The settings on record: dose 25-75 mg/kg.
Data set [6] deals with Dual specificity mitogen-activated protein kinase kinase 1 (Homo sapiens) (UniProt Q02750). Description: Inhibition of MAP2K1 (unknown origin) at 1 uM preincubated for 10 mins followed by substrate addition and measured after 60 mins in the presence of ATP by ADP-Glo reagent based luminescence assay relative to control. As to conditions: time 70.0 min.
Data set [7] addresses Mitogen-activated protein kinase 10 (Homo sapiens, UniProt P53779). The experiment in a line: Inhibition of N-terminal GST-tagged recombinant full length human JNK3 expressed in baculovirus infected Sf9 cells using IPTTPITTTYFFFKKK as substrate at 1 uM incubated for 60 mins in the presence of ATP by ADP-Glo reagent based luminescence assay relative to control.
The target in data set [8] is Mitogen-activated protein kinase 7 (Homo sapiens) (UniProt Q13164). The experiment in a line: Inhibition of ERK5 (unknown origin) at 1 uM preincubated for 10 mins followed by substrate addition and measured after 60 mins in the presence of ATP by ADP-Glo reagent based luminescence assay relative to control. As to conditions: time 70.0 min.
Data set [9] concerns Mus musculus. Description: Anti-fibrotic activity in bleomycin-induced C57BL/6 mouse model of pulmonary fibrosis assessed as restoration of respiratory function at 75 mg/kg, po administered twice a day for 3 weeks by spirometry analysis. It is filed as functional.
Data set [10] relates to Mus musculus. The experiment in a line: Anti-fibrotic activity in bleomycin-induced C57BL/6 mouse model of pulmonary fibrosis assessed as alleviation of body weight loss at 25 to 75 mg/kg, po administered twice a day for 3 weeks. It is filed as functional, organism-based. The settings on record: dose 25-75 mg/kg.
Data set [11] addresses T1, Dual specificity mitogen-activated protein kinase kinase 4 (Homo sapiens) (UniProt P45985).
T1 sequence (whole entry): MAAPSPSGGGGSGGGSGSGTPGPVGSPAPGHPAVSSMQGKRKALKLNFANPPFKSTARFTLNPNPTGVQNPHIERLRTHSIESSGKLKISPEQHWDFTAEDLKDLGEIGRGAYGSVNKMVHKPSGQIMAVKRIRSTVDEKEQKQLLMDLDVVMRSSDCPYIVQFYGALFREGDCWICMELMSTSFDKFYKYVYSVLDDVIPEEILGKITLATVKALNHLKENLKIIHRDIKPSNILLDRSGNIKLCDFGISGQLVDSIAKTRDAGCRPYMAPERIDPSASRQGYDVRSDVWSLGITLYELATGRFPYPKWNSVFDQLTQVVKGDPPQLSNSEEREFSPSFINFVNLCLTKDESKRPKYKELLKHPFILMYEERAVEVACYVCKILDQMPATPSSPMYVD
Description: Inhibition of MAP2K4 (unknown origin) at 1 uM preincubated for 10 mins followed by substrate addition and measured after 60 mins in the presence of ATP by ADP-Glo reagent based luminescence assay relative to control. The settings on record: time 70.0 min.

Data set [12] deals with Mitogen-activated protein kinase 8 (Homo sapiens, UniProt P45983). Description: Inhibition of N-terminal GST-tagged recombinant full length human JNK1 expressed in baculovirus infected Sf9 insect cells using IPTTPITTTYFFFKKK as substrate incubated for 60 mins in the presence of ATP by ADP-Glo reagent based luminescence assay.
The nature of data set [13]: Cmax in Sprague-Dawley rat at 5 mg/kg, iv by HPLC-UV analysis. It is filed as ADME, organism-based. Also noted: dose 5 mg/kg, route iv. The settings on record: in vivo.
Data set [14] concerns the target T2, Dual specificity mitogen-activated protein kinase kinase 7 (Homo sapiens) (UniProt O14733).
T2 sequence (whole entry): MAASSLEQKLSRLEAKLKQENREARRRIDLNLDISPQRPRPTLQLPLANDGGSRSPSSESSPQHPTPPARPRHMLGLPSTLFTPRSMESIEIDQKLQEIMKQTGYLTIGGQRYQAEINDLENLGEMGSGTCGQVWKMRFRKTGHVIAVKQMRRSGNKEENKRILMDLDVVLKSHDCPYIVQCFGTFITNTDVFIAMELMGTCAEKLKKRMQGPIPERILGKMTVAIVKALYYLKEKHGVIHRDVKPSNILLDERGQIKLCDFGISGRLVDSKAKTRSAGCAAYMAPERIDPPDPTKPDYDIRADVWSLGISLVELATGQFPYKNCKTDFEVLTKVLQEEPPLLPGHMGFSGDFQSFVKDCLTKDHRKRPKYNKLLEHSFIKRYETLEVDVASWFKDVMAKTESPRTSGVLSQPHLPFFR
Description: Inhibition of MAP2K7 (unknown origin) at 1 uM preincubated for 10 mins followed by substrate addition and measured after 60 mins in the presence of ATP by ADP-Glo reagent based luminescence assay relative to control. The settings on record: time 70.0 min.

Data set [15] can be described thus: AUC (0 to infinity) in Sprague-Dawley rat at 75 mg/kg, po by HPLC-UV analysis. It is filed as ADME, organism-based. Also noted: dose 75 mg/kg, route po. As to conditions: in vivo.
The nature of data set [16]: MRT (0 to infinity) in Sprague-Dawley rat at 75 mg/kg, po by HPLC-UV analysis. As to conditions: in vivo. The data set is classed as ADME, organism-based.
Data set [17] has as its target Mitogen-activated protein kinase 11 (Homo sapiens) (UniProt Q15759). The experiment in a line: Inhibition of p38beta (unknown origin) at 1 uM preincubated for 10 mins followed by substrate addition and measured after 60 mins in the presence of ATP by ADP-Glo reagent based luminescence assay relative to control. As to conditions: time 70.0 min.
Data set [18] in a line: Half-life in Sprague-Dawley rat at 5 mg/kg, iv by HPLC-UV analysis. The data set is classed as ADME, organism-based. The settings on record: in vivo.
The target of data set [19] is Mitogen-activated protein kinase 3 (Homo sapiens) (UniProt P27361). The experiment in a line: Inhibition of ERK1 (unknown origin) at 1 uM preincubated for 10 mins followed by substrate addition and measured after 60 mins in the presence of ATP by ADP-Glo reagent based luminescence assay relative to control. As to conditions: time 70.0 min.
The species entered for a further data set is Homo sapiens. The experiment in a line: Selectivity ratio of IC50 for inhibition of N-terminal GST-tagged recombinant full length human JNK2 expressed in baculovirus infected Sf9 cells to IC50 for inhibition of N-terminal GST-tagged recombinant full length human JNK1 expressed in baculovirus infected Sf9 insect cells.
Data set [20] has as its system Mus musculus. Description: Anti-fibrotic activity in bleomycin-induced C57BL/6 mouse model of pulmonary fibrosis assessed as enhancement of lung respiratory function at 25 to 75 mg/kg, po administered twice a day for 3 weeks by spirometry analysis. It is filed as functional, organism-based. The settings on record: dose 25-75 mg/kg.

The results in this text go back to ChEMBL document CHEMBL5370528, “Synthesis-accessibility-oriented design of c-Jun N-terminal kinase 1 inhibitor” (Eur J Med Chem, 2023).

The inhibition is the relative decrease from the control value, in per cent. A word on the half-life: it is the time needed for the level to fall by half in the phase considered. A high value points to slow decline. A word on the IC50: it is the concentration needed to halve the response being measured. As usually defined, the Cmax is the highest concentration seen after dosing. The term AUC(0-inf) denotes the area under the concentration-time curve extrapolated to infinity. A higher AUC(0-inf) goes with more exposure. The term MRT inf denotes a mean duration of stay, worked out from the concentration-time curve.

Molecules are shown by their SMILES. Calls of active or inactive are those of the source.

Mitogen-activated protein kinase 3 (Homo sapiens), sequence (P27361 whole entry): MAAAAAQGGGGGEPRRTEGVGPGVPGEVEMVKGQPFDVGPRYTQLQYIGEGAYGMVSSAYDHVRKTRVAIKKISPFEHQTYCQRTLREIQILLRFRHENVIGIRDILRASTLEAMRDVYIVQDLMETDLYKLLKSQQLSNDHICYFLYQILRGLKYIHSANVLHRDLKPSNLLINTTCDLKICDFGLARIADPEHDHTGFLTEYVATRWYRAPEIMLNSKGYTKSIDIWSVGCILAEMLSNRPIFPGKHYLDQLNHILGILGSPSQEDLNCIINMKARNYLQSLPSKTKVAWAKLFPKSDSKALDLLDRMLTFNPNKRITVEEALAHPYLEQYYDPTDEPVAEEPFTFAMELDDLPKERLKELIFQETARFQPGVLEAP
Dual specificity mitogen-activated protein kinase kinase 1 (Homo sapiens), sequence (Q02750 whole entry): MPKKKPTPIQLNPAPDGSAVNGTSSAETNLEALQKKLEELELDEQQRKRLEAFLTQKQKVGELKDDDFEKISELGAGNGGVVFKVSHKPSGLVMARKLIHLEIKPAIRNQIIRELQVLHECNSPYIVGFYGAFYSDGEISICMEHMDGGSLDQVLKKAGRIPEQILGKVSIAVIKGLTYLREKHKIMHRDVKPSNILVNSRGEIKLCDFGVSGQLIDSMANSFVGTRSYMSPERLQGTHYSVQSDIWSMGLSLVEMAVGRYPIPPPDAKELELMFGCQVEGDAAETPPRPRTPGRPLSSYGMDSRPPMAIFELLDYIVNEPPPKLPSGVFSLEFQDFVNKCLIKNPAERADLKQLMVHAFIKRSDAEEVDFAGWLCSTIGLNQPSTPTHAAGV
Mitogen-activated protein kinase 1 (Homo sapiens), sequence (P28482 whole entry): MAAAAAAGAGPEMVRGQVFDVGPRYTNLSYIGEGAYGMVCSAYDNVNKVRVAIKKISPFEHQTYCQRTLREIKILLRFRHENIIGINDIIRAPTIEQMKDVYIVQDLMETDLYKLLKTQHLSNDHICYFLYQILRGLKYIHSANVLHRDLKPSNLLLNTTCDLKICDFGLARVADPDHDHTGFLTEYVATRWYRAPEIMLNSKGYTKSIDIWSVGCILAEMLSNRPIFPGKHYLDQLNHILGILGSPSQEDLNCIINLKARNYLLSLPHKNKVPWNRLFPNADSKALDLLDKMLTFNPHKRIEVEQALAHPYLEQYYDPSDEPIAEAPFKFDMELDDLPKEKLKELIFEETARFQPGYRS
Mitogen-activated protein kinase 8, sequence (P45983 whole entry): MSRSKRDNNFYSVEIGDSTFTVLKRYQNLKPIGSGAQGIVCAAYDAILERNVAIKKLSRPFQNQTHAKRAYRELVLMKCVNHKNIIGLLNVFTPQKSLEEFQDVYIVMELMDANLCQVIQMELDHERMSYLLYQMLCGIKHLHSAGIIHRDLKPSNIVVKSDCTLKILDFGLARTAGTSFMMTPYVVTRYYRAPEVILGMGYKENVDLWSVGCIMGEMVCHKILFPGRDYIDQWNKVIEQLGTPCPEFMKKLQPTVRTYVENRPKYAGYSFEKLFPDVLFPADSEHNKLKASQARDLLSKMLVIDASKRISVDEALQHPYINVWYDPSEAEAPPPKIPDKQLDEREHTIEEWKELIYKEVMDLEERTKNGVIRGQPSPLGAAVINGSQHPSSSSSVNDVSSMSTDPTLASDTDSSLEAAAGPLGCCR
Mitogen-activated protein kinase 10, sequence (P53779 whole entry): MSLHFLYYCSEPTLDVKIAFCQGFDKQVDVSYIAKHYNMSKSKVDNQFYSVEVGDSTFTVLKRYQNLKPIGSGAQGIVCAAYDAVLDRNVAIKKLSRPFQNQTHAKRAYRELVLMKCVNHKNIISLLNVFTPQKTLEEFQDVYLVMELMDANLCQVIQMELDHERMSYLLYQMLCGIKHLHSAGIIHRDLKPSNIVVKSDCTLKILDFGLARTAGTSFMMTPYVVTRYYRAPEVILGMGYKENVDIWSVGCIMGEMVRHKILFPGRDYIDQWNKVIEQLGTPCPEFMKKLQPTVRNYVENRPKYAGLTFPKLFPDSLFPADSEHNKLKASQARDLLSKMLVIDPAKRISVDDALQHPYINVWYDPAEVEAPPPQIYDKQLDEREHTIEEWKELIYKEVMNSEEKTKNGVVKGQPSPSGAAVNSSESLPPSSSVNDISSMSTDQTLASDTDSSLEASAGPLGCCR
Mitogen-activated protein kinase 11 (Homo sapiens), sequence (Q15759 whole entry): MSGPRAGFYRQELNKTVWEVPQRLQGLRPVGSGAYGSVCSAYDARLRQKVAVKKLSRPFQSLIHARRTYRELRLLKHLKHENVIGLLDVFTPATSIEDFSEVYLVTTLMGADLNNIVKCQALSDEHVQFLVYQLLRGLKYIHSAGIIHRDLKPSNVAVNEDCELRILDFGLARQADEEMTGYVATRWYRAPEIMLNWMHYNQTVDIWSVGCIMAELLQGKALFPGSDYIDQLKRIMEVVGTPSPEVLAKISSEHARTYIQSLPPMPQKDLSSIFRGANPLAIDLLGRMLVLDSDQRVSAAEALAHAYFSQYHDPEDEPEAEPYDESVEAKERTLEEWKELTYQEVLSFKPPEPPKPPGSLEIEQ
Mitogen-activated protein kinase 7 (Homo sapiens), sequence (Q13164 2-816 limits assumed): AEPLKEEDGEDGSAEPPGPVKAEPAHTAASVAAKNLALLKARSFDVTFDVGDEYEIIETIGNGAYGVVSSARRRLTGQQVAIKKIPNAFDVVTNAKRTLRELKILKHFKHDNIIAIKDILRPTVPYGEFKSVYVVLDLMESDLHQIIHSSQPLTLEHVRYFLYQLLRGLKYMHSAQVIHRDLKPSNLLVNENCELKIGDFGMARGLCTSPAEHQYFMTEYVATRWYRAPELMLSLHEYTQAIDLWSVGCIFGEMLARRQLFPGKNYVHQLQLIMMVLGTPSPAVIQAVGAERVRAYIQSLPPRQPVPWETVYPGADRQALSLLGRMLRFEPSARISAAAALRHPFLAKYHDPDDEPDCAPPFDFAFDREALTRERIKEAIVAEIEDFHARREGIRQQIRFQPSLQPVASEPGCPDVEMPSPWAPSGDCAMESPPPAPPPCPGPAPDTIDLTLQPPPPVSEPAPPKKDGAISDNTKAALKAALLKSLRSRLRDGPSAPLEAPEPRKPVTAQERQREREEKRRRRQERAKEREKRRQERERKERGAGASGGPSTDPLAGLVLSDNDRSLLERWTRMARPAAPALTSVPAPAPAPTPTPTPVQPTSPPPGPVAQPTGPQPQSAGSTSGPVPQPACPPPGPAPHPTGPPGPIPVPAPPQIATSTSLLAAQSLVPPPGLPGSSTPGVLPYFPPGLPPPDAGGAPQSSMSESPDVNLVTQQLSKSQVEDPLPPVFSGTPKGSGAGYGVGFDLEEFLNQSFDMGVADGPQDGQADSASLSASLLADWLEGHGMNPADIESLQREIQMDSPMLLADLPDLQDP

`CC(C)(C)CNc1ncc(Br)c(Nc2ccccc2C(N)=O)n1`: the inhibition entry in data set [1] is “Dose-Dependent Effect”; in [2], 18.7%; in data set [4], 41.9%; in data set [6], 2.35%; in data set [7], 99.6%; in data set [8], 13.5%. Moreover, the inhibition in data set [11] was determined as 93.8%; in data set [14], 8.7%; in data set [17], 9.6%; in data set [19], 25.9%. Also, the half-life in data set [3] is 4.22 h; in data set [18], 2.09 h. Further, the result in the data set on Mus musculus [5], with Mus musculus [10] and in the data set with Mus musculus [20] was Active. Besides, the Activity with Mus musculus [9] is reported as approximately 100%. Also, in data set [12], the IC50 is 0.0335 µM. Moreover, the peak concentration (Cmax) in [13] is 0.453 µg/mL. In [15], the AUC(0-inf) stood at 1.7 µg·h/mL. For the same compound, in data set [16], the MRT inf worked out at 5.45 h. Also, the Ratio IC50 in the data set listed under Homo sapiens worked out at 3.36.
